According to US20190225670A1, “COMPOUNDS AND METHODS FOR ACTIVATING TIE2 SIGNALING” (ASCLEPIX THERAPEUTICS, LLC, priority 2016, published 2019):

Columns and labels:
[1] = Self-assembly of peptide in media; format: physicochemical; conditions: cell culture media
[2] = test system: Tie2; test: Triton X-100 fractionation of MEC lysates, Tie2; format: cell-based, human
Protocol: Tie2 at EC-EC junctions form actin-rich complexes that are insoluble in Triton X-100-based lysis buffers but are soluble when distributed over the surface of the cell. Therefore, MEC monolayers were treated with various combinations of AXT107, Ang1, and Ang2 and cell lysates were fractionated by their solubility in Triton X-100-based lysis buffers. Experiments including VEGF 165 were also performed since VEGFR2 signaling often opposes the activities of Tie2. In each experiment, 100 μM AXT107 was used since it provided clear results relative to lower concentrations of AXT107.
Next, experiments were performed to determine whether or not relocation of Tie2 to the insoluble fraction was important for Tie2's activation by Ang2. Tie2 was immunoprecipitated from fractionated MEC lysates exposed to Ang2 with or without AXT107 and then immunoblotted for phospho-Tie2.
The isolation of Triton X-100 soluble and insoluble fractions was performed using modifications to previously-described procedures (see, e.g., Lampugnani et al., J Cell Biol. 1995; 129(1):203-217). FN1-coated six-well plates were seeded with 2.5×10^6 cells and cultured for forty-eight hours, as described above. The cultures were then serum starved for ninety minutes in EBM-2 media, treated with 100 μM AXT107 or DMSO vehicle, and fifteen minutes with 1 mM sodium vanadate. […] Samples were analyzed by western blot as described above. […]

[3] = test system: phospho-Tie2 (Y992); test: Immunofluorescence of phospho-Tie2 in MEC monolayers; format: cell-based, human; conditions: 200 ng/ml Ang2 15 min and AXT107
Protocol: As such, subsequent experiments evaluate the effects of AXT107 at cell-cell junctions in MEC monolayers using immunofluorescence microscopy rather than at the EC-ECM interface.
Glass-bottomed, 96-well plates with half well size were coated with 10 μg/ml FN1 for two hours at 37° C. The FN1 solution was then removed by aspiration and the plate seeded with 4×10^3 MECs in EGM-2MV media. After twenty-four hours, the cells were washed once with dPBS containing Ca^2+ and Mg^2+ to remove dead cells and the cells were allowed to grow for an additional twenty-four hours. For three-hour duration treatments (i.e., VE-cadherin), cells were washed twice with dPBS containing Ca^2+ and Mg^2+ and serum starved in EBM-2 for ninety minutes. The media was then removed and the cells were treated for three hours with 100 μl of EBM-2 media containing 200 ng/ml Ang2 or PBS and varying concentrations of AXT107 or DMSO. For fifteen minute-treated samples (i.e., phospho-Tie2), the cells were serum starved in EBM-2 media for 165 minutes, incubated for ninety minutes with varying concentrations of AXT107 or DMSO in EBM-2, and finally stimulated for fifteen minutes with 200 ng/ml Ang2 or PBS supplemented with peptide to retain the same concentrations. These times were chosen so that both treatment procedures would be completed at the same time. […]

[4] = molecular target: integrin αvβ3 (Homo sapiens, UniProt P05106+P06756); conditions: Lee et al., Sci Rep. 2014; cited from earlier work
Chain of integrin αvβ3 (P06756 31-1048): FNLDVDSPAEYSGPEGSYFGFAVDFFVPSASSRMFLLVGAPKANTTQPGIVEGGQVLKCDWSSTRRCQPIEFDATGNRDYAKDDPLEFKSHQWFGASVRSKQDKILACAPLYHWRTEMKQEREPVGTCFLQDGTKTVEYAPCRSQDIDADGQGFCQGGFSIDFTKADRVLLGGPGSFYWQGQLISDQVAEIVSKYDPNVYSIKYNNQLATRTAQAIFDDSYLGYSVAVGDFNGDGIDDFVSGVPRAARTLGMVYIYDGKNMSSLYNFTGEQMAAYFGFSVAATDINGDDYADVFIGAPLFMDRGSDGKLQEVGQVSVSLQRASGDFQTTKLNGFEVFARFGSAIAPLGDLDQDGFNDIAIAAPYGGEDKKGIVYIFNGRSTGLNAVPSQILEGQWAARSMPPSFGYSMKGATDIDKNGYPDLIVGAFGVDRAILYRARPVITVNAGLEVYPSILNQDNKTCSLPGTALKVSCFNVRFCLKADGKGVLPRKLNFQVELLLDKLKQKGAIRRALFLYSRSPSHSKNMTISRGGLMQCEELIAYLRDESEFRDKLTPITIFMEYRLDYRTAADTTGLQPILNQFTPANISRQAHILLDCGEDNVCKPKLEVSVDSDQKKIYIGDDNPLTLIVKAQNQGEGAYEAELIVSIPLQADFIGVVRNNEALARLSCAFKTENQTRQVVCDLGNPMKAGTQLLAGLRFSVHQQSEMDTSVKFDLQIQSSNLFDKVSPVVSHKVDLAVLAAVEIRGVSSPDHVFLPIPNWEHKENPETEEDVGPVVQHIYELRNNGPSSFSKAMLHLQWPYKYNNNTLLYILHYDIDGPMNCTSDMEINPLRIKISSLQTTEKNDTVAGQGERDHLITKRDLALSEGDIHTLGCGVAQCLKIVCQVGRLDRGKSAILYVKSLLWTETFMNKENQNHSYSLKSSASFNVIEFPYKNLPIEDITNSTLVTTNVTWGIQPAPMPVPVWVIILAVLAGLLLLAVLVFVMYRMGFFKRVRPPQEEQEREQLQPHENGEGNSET
Chain of integrin αvβ3 (P05106 27-788): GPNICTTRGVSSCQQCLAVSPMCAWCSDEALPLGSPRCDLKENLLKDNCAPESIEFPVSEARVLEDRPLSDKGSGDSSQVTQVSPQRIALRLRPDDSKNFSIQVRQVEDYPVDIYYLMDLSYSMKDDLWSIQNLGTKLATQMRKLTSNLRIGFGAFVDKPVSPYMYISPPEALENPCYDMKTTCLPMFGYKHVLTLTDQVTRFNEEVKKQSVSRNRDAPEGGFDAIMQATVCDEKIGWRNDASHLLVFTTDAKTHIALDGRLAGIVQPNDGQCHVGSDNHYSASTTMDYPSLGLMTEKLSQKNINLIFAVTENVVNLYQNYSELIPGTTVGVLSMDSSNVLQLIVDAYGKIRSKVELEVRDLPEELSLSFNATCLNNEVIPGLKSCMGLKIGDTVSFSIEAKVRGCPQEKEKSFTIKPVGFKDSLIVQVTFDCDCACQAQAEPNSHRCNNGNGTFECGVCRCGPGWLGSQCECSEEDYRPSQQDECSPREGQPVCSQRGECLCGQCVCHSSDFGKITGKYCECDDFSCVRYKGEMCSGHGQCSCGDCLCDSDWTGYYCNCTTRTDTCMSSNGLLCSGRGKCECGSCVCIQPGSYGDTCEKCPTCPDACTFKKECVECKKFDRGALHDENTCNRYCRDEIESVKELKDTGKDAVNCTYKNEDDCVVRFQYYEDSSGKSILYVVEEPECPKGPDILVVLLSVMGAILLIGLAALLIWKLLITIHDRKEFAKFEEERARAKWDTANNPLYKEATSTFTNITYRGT

[5] = test system: Tie2; test: Retinopathy of prematurity (ROP) mouse model, Tie2 activation; format: in vivo; conditions: no data given
Text: To investigate the effects of AXT107 on Tie2 activation in vivo, retinopathy of prematurity (ROP) mouse model was used. In this system, P7 pups are placed in 75% 02 for five days, resulting in a loss of retinal capillary density from hyperoxia and a rapid induction of neovascularization upon the pup's return to normoxic conditions. […] Increased levels of Ang2 in the vitreous contribute to vessel leakage and macular edema in various retinopathies.

Sequence: LRRFSTAPFAFIDINDVINF [AXT107]
- self-assembly when added to media [1]: self-assemble into peptide complexes
- amount of Tie2 in Triton X-100 insoluble fraction ([2]; 100 μM AXT107, independent of growth factor treatment): increased amounts
- phospho-Tie2 in fractionated lysates immunoprecipitated for Tie2 ([2]; MEC exposed to Ang2 with or without AXT107): observed only in the insoluble fractions of peptide-treated samples
- phospho-Tie2 fluorescence intensity and distribution [3]: increased overall fluorescence intensity and redistributed phospho-Tie2 along cell-cell junctions and into large clusters
- binding to integrin αvβ3 [4]: binds tightly
- activation of Tie2 by Ang2 in vivo [5]: potentiates the activation of Tie2 by Ang2
